Converted amounts (≈) assume the structure as drawn.
What was measured:
[1] = tested on: P. mirabilis ATCC 43071; assay: MIC follow-on study; conditions: Proteus mirabilis, ATCC43071
[2] = tested on: A. baumannii NCTC 12156; assay: MIC follow-on study; conditions: Acinetobacter baumannii, NCTC12156
[3] = tested on: E. cloacae AR0032; assay: MIC follow-on study; type: cell-based; conditions: Enterobacter cloacae
Procedure: (§1) Minimum inhibitory concentration (MIC) assays were carried out using E. coli strains: GKCW101; GKCW102 and ATCC25922 using the method described by Antimicrobial Agents and Chemotherapy December 2016 Volume 60 Number 12 pages 7372-7381 and CLSI, 2020. Performance standards for antimicrobial susceptibility testing. Clinical Lab Standards Institute.
(§2) As a follow-on study, the MIC of BCY13246 was measured against a range of bacterial targets and compared with the MIC for the constituent bicyclic peptide ([…]) and carrier peptide ([…]) alone along with existing anti-microbial agents meropenem and levofloxacin. […].

[4] = tested on: E. cloacae KPC114; assay: MIC follow-on study; type: cell-based; conditions: Enterobacter cloacae
Procedure: as §1, §2

[5] = tested on: K. pneumoniae ATCC 700603; assay: MIC follow-on study; type: cell-based; conditions: Klebsiella pneumoniae, ATCC700603
Procedure: as §1, §2

[6] = tested on: P. mirabilis AR159; assay: MIC follow-on study; type: cell-based; conditions: Proteus mirabilis
Procedure: as §1, §2

[7] = tested on: K. pneumoniae KPNIH1; assay: MIC follow-on study; type: cell-based; conditions: Klebsiella pneumoniae
Procedure: as §1, §2

[8] = tested on: C. freundii AR0116; assay: MIC follow-on study; type: cell-based; conditions: Citrobacter freundii
Procedure: as §1, §2

[9] = tested on: A. baumannii AR0275; assay: MIC follow-on study; type: cell-based; conditions: Acinetobacter baumannii
Procedure: as §1, §2

[10] = tested on: E. cloacae AR0038; assay: MIC follow-on study; type: cell-based; conditions: Enterobacter cloacae
Procedure: as §1, §2

[11] = tested on: E. coli ATCC BAA-2469; assay: MIC follow-on study; type: cell-based; conditions: Escherichia coli, ATCCBAA2469
Procedure: as §1, §2

[12] = tested on: E. coli NCTC 13441; assay: MIC follow-on study; type: cell-based; conditions: Escherichia coli, NCTC13441
Procedure: as §1, §2

[13] = tested on: E. coli UTI89; assay: MIC follow-on study; conditions: Escherichia coli
[14] = tested on: K. pneumoniae ATCC 43816; assay: MIC follow-on study; conditions: Klebsiella pneumoniae, ATCC43816
[15] = tested on: E. coli ATCC25922; assay: Minimum inhibitory concentration (MIC) assay; conditions: Escherichia coli
[16] = tested on: K. pneumoniae B454; assay: MIC follow-on study; conditions: Klebsiella pneumoniae
[17] = tested on: C. freundii B121; assay: MIC follow-on study; conditions: Citrobacter freundii
[18] = tested on: E. cloacae B173; assay: MIC follow-on study; conditions: Enterobacter cloacae
[19] = tested on: P. aeruginosa NCTC 13437; assay: MIC follow-on study; type: cell-based; conditions: Pseudomonas aeruginosa, NCTC13437
Procedure: as §1, §2

[20] = tested on: P. aeruginosa ATCC 27853; assay: MIC follow-on study; conditions: Pseudomonas aeruginosa, ATCC27853

Structure (SMILES) | MIC [1] [µg/mL] | MIC [2] [µg/mL] | MIC [3] [µg/mL] | MIC [4] [µg/mL] | MIC [5] [µg/mL] | MIC [6] [µg/mL] | MIC [7] [µg/mL] | MIC [8] [µg/mL] | MIC [9] [µg/mL] | MIC [10] [µg/mL] | MIC [11] [µg/mL] | MIC [12] [µg/mL] | MIC [13] [µg/mL] | MIC [14] [µg/mL] | MIC [15] [µg/mL] | MIC [16] [µg/mL] | MIC [17] [µg/mL] | MIC [18] [µg/mL] | MIC [19] [µg/mL] | MIC [20] [µg/mL]
C[C@H]1COc2c(N3CCN(C)CC3)c(F)cc3c(=O)c(C(=O)O)cn1c23 [Levofloxacin, levofloxacin] | 0.06 (≈ 0.166 µM) | 0.25 (≈ 0.692 µM) | 0.5 (≈ 1.38 µM) | 0.5 (≈ 1.38 µM) | 0.5 (≈ 1.38 µM) | 2 (≈ 5.53 µM) | > 2 | > 2 | > 2 | > 2 | > 2 | > 2 | 0.03 (≈ 0.083 µM) | 0.06 (≈ 0.166 µM) | 0.016 (≈ 0.0443 µM) | > 2 | 0.25 (≈ 0.692 µM) | 0.03 (≈ 0.083 µM) | – | –
C[C@@H](O)[C@H]1C(=O)N2C(C(=O)O)=C(S[C@@H]3CN[C@H](C(=O)N(C)C)C3)[C@H](C)[C@H]12 [Meropenem, meropenem] | 0.06 (≈ 0.156 µM) | 1 (≈ 2.61 µM) | 0.25 (≈ 0.652 µM) | > 2 | 0.03 (≈ 0.0782 µM) | > 2 | > 2 | > 2 | > 2 | > 2 | > 2 | 0.016 (≈ 0.0417 µM) | 0.016 (≈ 0.0417 µM) | 0.03 (≈ 0.0782 µM) | 0.016 (≈ 0.0417 µM) | 0.03 (≈ 0.0782 µM) | 0.03 (≈ 0.0782 µM) | 0.03 (≈ 0.0782 µM) | > 2 | 0.5 (≈ 1.3 µM)

— US20230086865A1, “ANTI-INFECTIVE BICYCLIC PEPTIDE CONJUGATES” (priority 2020, published 2023)
